Test results published in US9708314B2, “Heterocyclic amide compound” (NISSAN CHEMICAL INDUSTRIES, LTD., priority 2013, dated 2017).

What was measured:
Type in all cases: in vivo
[1] = system: Echinochloa oryzacola Vasing.; test: Test Example 1: herbicidal activity, application before weed generation in submerged conditions; settings: Application herbicide amount 320 g/ha; Seventeenth Table
Procedure, shortened: (§1)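 Water-diluted emulsion formulation is applied onto flood water (4 cm deep) covering alluvial soil on the day weed seeds are sown, after transplanting 2.5 leaf stage rice. Rates are expressed per hectare. Injury or control is graded 0–5 three weeks later.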

Monochoria vaginalis = test: as above; settings: Application herbicide amount 320 g/ha; Seventeenth Table
Procedure, shortened: as §1

Scirpus juncoides = test: as above; settings: Application herbicide amount 320 g/ha; Seventeenth Table
Procedure, shortened: as §1

[2] = system: Beta vulgaris ssp. vulgaris; test: Test Example 4: effect on crop by application to foliage (diluvial soil, plastic box); settings: 320 g/ha; for f (Beta vulgaris ssp. vulgaris) effect on crop grade: foliage application; for effect on crop, f (Beta vulgaris ssp. vulgaris): application to foliage
Procedure, shortened: (§2)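 Greenhouse plants (25° C. to 30° C., 14 d, diluvial soil) receive a foliar spray of water-diluted emulsifiable formulation at defined g/ha. Grading after 3 weeks uses a six-step herbicidal-ratio scale, with 4 covering 70% to <90% and 1 covering 5% to <20%.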

Brassica campestris L. = test: as above; settings: 320 g/ha; for g (Brassica campestris L.) effect on crop grade: foliage application; for effect on crop, g (Brassica campestris L.): application to foliage
Procedure, shortened: as §2

Glycine max = test: as above; settings: 320 g/ha; for c (Glycine max) effect on crop grade: foliage application; for effect on crop, c (Glycine max): application to foliage
Procedure, shortened: as §2

Triticum aestivum = test: as above; settings: 320 g/ha; for e (Triticum aestivum) effect on crop grade: foliage application; for effect on crop, e (Triticum aestivum): application to foliage
Procedure, shortened: as §2

Zea mays = test: as above; settings: 320 g/ha; for b (Zea mays) effect on crop grade: foliage application; for effect on crop, b (Zea mays): application to foliage
Procedure, shortened: as §2

[3] = system: directly sowed Oryza sativa; test: as above; settings: 320 g/ha; for d (directly sowed Oryza sativa) effect on crop grade: foliage application; for effect on crop, d (directly sowed Oryza sativa): application to foliage
Procedure, shortened: as §2

For `CC(C)c1nnc2c(C(=O)Nc3nnnn3-c3ccccc3)ccc(C(F)(F)F)n12` [2-073], the “A: Echinochloa oryzicola Vasing. (herbicidal effect grade)” value [1] was 4 (Herbicidal ratio of 70% or more and less than 90%), the “C: Monochoria vaginalis (herbicidal effect grade)” value (“C: Monochoria vaginalis” below) (Monochoria vaginalis) was 4 (Herbicidal ratio of 70% or more and less than 90%) and the “B: Scirpus juncoides (herbicidal effect grade)” value (“B: Scirpus juncoides” below) (Scirpus juncoides) was 3 (Herbicidal ratio of 40% or more and less than 70%). For the same molecule, the “f (Beta vulgaris ssp. vulgaris) effect on crop grade” value [2] was 3 (Herbicidal ratio of 40% or more and less than 70%), the “g (Brassica campestris L.) effect on crop grade” value (Brassica campestris L.) was 0 (Herbicidal ratio of 5% or less (almost no effect)) and the “c (Glycine max) effect on crop grade” value (Glycine max) was 0 (Herbicidal ratio of 5% or less (almost no effect)). For the same molecule, the “e (Triticum aestivum) effect on crop grade” value (Triticum aestivum) was 0 (Herbicidal ratio of 5% or less (almost no effect)), the “b (Zea mays) effect on crop grade” value (Zea mays) was 0 (Herbicidal ratio of 5% or less (almost no effect)) and the “d (directly sowed Oryza sativa) effect on crop grade” value [3] was 2 (Herbicidal ratio of 20% or more and less than 40%).
`COCCNc1nnc2c(C(=O)Nc3nnnn3C)ccc(C(F)(F)F)n12` [2-074] was tested, and the “A: Echinochloa oryzicola Vasing. (herbicidal effect grade)” value [1] was 4 (Herbicidal ratio of 70% or more and less than 90%), the “C: Monochoria vaginalis” value (Monochoria vaginalis) was 3 (Herbicidal ratio of 40% or more and less than 70%) and the “B: Scirpus juncoides” value (Scirpus juncoides) was 4 (Herbicidal ratio of 70% or more and less than 90%). For the same molecule, the “f (Beta vulgaris ssp. vulgaris) effect on crop grade” value [2] was 5 (Herbicidal ratio of 90% or more (almost completely withered)), the “g (Brassica campestris L.) effect on crop grade” value (Brassica campestris L.) was 4 (Herbicidal ratio of 70% or more and less than 90%) and the “c (Glycine max) effect on crop grade” value (Glycine max) was 3 (Herbicidal ratio of 40% or more and less than 70%). For the same molecule, the “e (Triticum aestivum) effect on crop grade” value (Triticum aestivum) was 3 (Herbicidal ratio of 40% or more and less than 70%), the “b (Zea mays) effect on crop grade” value (Zea mays) was 5 (Herbicidal ratio of 90% or more (almost completely withered)) and the “d (directly sowed Oryza sativa) effect on crop grade” value [3] was 4 (Herbicidal ratio of 70% or more and less than 90%).
In the case of `Cn1nnnc1NC(=O)c1ccc(C(F)(F)F)n2c(N3CCOCC3)nnc12` [2-075], the “A: Echinochloa oryzicola Vasing. (herbicidal effect grade)” value [1] is reported as 5 (Herbicidal ratio of 90% or more (almost completely withered)), the “C: Monochoria vaginalis” value (Monochoria vaginalis) is reported as 5 (Herbicidal ratio of 90% or more (almost completely withered)) and the “B: Scirpus juncoides” value (Scirpus juncoides) is reported as 5 (Herbicidal ratio of 90% or more (almost completely withered)). For the same molecule, the “effect on crop, f (Beta vulgaris ssp. vulgaris)” value [2] was 5 (Herbicidal ratio of 90% or more (almost completely withered)), the “effect on crop, g (Brassica campestris L.)” value (Brassica campestris L.) was 5 (Herbicidal ratio of 90% or more (almost completely withered)) and the “effect on crop, c (Glycine max)” value (Glycine max) was 3 (Herbicidal ratio of 40% or more and less than 70%). The “effect on crop, e (Triticum aestivum)” value (Triticum aestivum) was 4 (Herbicidal ratio of 70% or more and less than 90%), the “effect on crop, b (Zea mays)” value (Zea mays) was 5 (Herbicidal ratio of 90% or more (almost completely withered)) and the “effect on crop, d (directly sowed Oryza sativa)” value [3] was 5 (Herbicidal ratio of 90% or more (almost completely withered)).
`Cn1nnnc1NC(=O)c1ccc(C(F)(F)F)n2c(SCc3ccccc3)nnc12` [2-076] was tested, and the “A: Echinochloa oryzicola Vasing. (herbicidal effect grade)” value [1] was 5 (Herbicidal ratio of 90% or more (almost completely withered)), the “C: Monochoria vaginalis” value (Monochoria vaginalis) was 3 (Herbicidal ratio of 40% or more and less than 70%) and the “B: Scirpus juncoides” value (Scirpus juncoides) was 4 (Herbicidal ratio of 70% or more and less than 90%). For the same molecule, the “effect on crop, f (Beta vulgaris ssp. vulgaris)” value [2] was 5 (Herbicidal ratio of 90% or more (almost completely withered)), the “effect on crop, g (Brassica campestris L.)” value (Brassica campestris L.) was 4 (Herbicidal ratio of 70% or more and less than 90%) and the “effect on crop, c (Glycine max)” value (Glycine max) was 0 (Herbicidal ratio of 5% or less (almost no effect)). For the same molecule, the “effect on crop, e (Triticum aestivum)” value (Triticum aestivum) was 0 (Herbicidal ratio of 5% or less (almost no effect)), the “effect on crop, b (Zea mays)” value (Zea mays) was 1 (Herbicidal ratio of 5% or more and less than 20%) and the “effect on crop, d (directly sowed Oryza sativa)” value [3] was 1 (Herbicidal ratio of 5% or more and less than 20%).
